Converted amounts (≈) assume the structure as drawn.
Assays:
Assay type in all cases: functional
Escherichia coli = assay: Antibacterial activity against Escherichia coli after 24 hrs by broth microdilution method
Staphylococcus aureus = assay: Antibacterial activity against Staphylococcus aureus ATCC 25923 after 24 hrs by broth microdilution method
Klebsiella pneumoniae = assay: Antibacterial activity against Klebsiella pneumoniae ATCC 27736 after 24 hrs by broth microdilution method
[1] = test system: Trichophyton mentagrophytes; assay: Antifungal activity against sTrichophyton mentagrophytes after 96 hrs by broth microdilution method
Candida albicans = assay: Antifungal activity against Candida albicans after 48 hrs by broth microdilution method
Cryptococcus neoformans = assay: Antifungal activity against Cryptococcus neoformans after 72 hrs by broth microdilution method
Candida parapsilosis = assay: Antifungal activity against Candida parapsilosis ATCC 22019 after 48 hrs by broth microdilution method; conditions: Lodderomyces parapsilosis, ATCC 22019, 48 h
Sporothrix schenckii = assay: Antifungal activity against Sporothrix schenckii after 72 hrs by broth microdilution method
Aspergillus fumigatus = assay: Antifungal activity against Aspergillus fumigatus after 72 hrs by broth microdilution method

| Molecule | MIC (Escherichia coli) | MIC (Staphylococcus aureus; ATCC 25923, 24 h) | MIC (Klebsiella pneumoniae; ATCC 27736, 24 h) | MIC [1] | MIC (Candida albicans) | MIC (Cryptococcus neoformans) | MIC (Candida parapsilosis) | MIC (Sporothrix schenckii) | MIC (Aspergillus fumigatus) | MIC (Staphylococcus aureus) | MIC (Klebsiella pneumoniae) |
| --- | --- | --- | --- | --- | --- | --- | --- | --- | --- | --- | --- |
| O=C1C(Cl)=C(NCCN2C(=O)c3ccccc3C2=O)C(=O)c2ccccc21 | 6.25 µg/mL (≈ 16.4 µM) | 6.25 µg/mL (≈ 16.4 µM) | 50 µg/mL (≈ 131 µM) | – | – | – | – | – | – | – | – |
| NC[C@H]1O[C@H](O[C@H]2[C@H](O)[C@@H](O[C@H]3O[C@H](CO)[C@@H](O)[C@H](N)[C@H]3O)[C@H](N)C[C@@H]2N)[C@H](O)[C@@H](O)[C@@H]1O [KANAMYCIN] | 16 µg/mL (≈ 33 µM) | 2 µg/mL (≈ 4.13 µM) | 32 µg/mL (≈ 66 µM) | – | – | – | – | – | – | – | – |
| C[C@@H]1[C@H](O)[C@@H](C)/C=C/C=C/C=C/C=C/C=C/C=C/C=C/[C@H](O[C@@H]2O[C@H](C)[C@@H](O)[C@H](N)[C@@H]2O)C[C@@H]2O[C@](O)(C[C@@H](O)C[C@@H](O)[C@H](O)CC[C@@H](O)C[C@@H](O)CC(=O)O[C@H]1C)C[C@H](O)[C@H]2C(=O)O [AMPHOTERICIN B] | – | – | – | 1.56 µg/mL (≈ 1.69 µM) | 0.39 µg/mL (≈ 0.422 µM) | 0.78 µg/mL (≈ 0.844 µM) | – | – | – | – | – |
| COc1cccc(SC2=C(N(c3ccccc3)c3ccccc3)C(=O)c3ccccc3C2=O)c1 | > 50 µg/mL | 25 µg/mL (≈ 53.9 µM) | 50 µg/mL (≈ 108 µM) | – | – | – | – | – | – | – | – |
| O=C1C(Nc2ccc(O)cc2)=C(Sc2ccccc2)C(=O)c2ccccc21 | > 50 µg/mL | 50 µg/mL (≈ 134 µM) | > 50 µg/mL | – | – | – | – | – | – | – | – |
| NC1=C(Sc2ccccc2)C(=O)c2ccccc2C1=O | > 50 µg/mL | 6.25 µg/mL (≈ 22.2 µM) | 1.56 µg/mL (≈ 5.54 µM) | 12.5 µg/mL (≈ 44.4 µM) | 12.5 µg/mL (≈ 44.4 µM) | 25 µg/mL (≈ 88.9 µM) | 12.5 µg/mL (≈ 44.4 µM) | 25 µg/mL (≈ 88.9 µM) | 6.25 µg/mL (≈ 22.2 µM) | – | – |
| GENTAMICIN | 0.18 µg/mL | – | – | – | – | – | – | – | – | 0.78 µg/mL | 0.39 µg/mL |
| O=C1C(Nc2ccccc2)=C(Sc2cccc3ccccc23)C(=O)c2ccccc21 | – | – | – | > 50 µg/mL | 50 µg/mL (≈ 123 µM) | > 50 µg/mL | > 50 µg/mL | > 50 µg/mL | > 50 µg/mL | – | – |
| COc1ccc2[nH]c3c(=O)c4ccccc4c(=O)c=3sc2c1 | 25 µg/mL (≈ 80.8 µM) | 12.5 µg/mL (≈ 40.4 µM) | > 50 µg/mL | – | – | – | – | – | – | – | – |
| Nc1c2ccccc2nc2c(=O)c3ccccc3c(=O)c=2n1-c1ccccc1 | – | – | – | 12.5 µg/mL (≈ 34.2 µM) | 25 µg/mL (≈ 68.4 µM) | 25 µg/mL (≈ 68.4 µM) | 25 µg/mL (≈ 68.4 µM) | > 50 µg/mL | > 50 µg/mL | – | – |
| O=C1C(Cl)=C(Sc2cccc3ccccc23)C(=O)c2ccccc21 | 25 µg/mL (≈ 71.3 µM) | > 50 µg/mL | > 50 µg/mL | – | – | – | – | – | – | – | – |
| N#Cc1ccccc1NC1=C(Cl)C(=O)c2ccccc2C1=O | – | – | – | > 50 µg/mL | 50 µg/mL (≈ 162 µM) | 50 µg/mL (≈ 162 µM) | 25 µg/mL (≈ 81 µM) | > 50 µg/mL | > 50 µg/mL | – | – |
| NYSTATIN | – | – | – | – | 7.8 µg/mL | 3.5 µg/mL | – | 13.2 µg/mL | – | – | – |
| O=C1C(Nc2ccccc2)=C(Sc2ccccc2)C(=O)c2ccccc21 | > 50 µg/mL | > 50 µg/mL | 25 µg/mL (≈ 69.9 µM) | – | – | – | – | – | – | – | – |
| O=c1c2[nH]c3ccccc3sc=2c(=O)c2ccccc12 | 25 µg/mL (≈ 89.5 µM) | 25 µg/mL (≈ 89.5 µM) | > 50 µg/mL | – | – | – | – | – | – | – | – |
| O=C1C(Cl)=C(N(c2ccccc2)c2ccccc2)C(=O)c2ccccc21 | > 50 µg/mL | 25 µg/mL (≈ 69.5 µM) | 25 µg/mL (≈ 69.5 µM) | 50 µg/mL (≈ 139 µM) | 12.5 µg/mL (≈ 34.7 µM) | 25 µg/mL (≈ 69.5 µM) | 12.5 µg/mL (≈ 34.7 µM) | 6.25 µg/mL (≈ 17.4 µM) | 50 µg/mL (≈ 139 µM) | – | – |

| Molecule | MIC (Escherichia coli) | MIC (Staphylococcus aureus; ATCC 25923, 24 h) | MIC (Klebsiella pneumoniae; ATCC 27736, 24 h) | MIC [1] | MIC (Candida albicans) | MIC (Cryptococcus neoformans) | MIC (Candida parapsilosis) | MIC (Sporothrix schenckii) | MIC (Aspergillus fumigatus) | MIC (Staphylococcus aureus) | MIC (Klebsiella pneumoniae) |
| --- | --- | --- | --- | --- | --- | --- | --- | --- | --- | --- | --- |
| O=C1C(Cl)=C(Sc2ccccc2)C(=O)c2ccccc21 | 12.5 µg/mL (≈ 41.6 µM) | 25 µg/mL (≈ 83.1 µM) | > 50 µg/mL | – | – | – | – | – | – | – | – |
| NC1=C(Sc2cccc3ccccc23)C(=O)c2ccccc2C1=O | > 50 µg/mL | 12.5 µg/mL (≈ 37.7 µM) | 12.5 µg/mL (≈ 37.7 µM) | 25 µg/mL (≈ 75.4 µM) | 25 µg/mL (≈ 75.4 µM) | 50 µg/mL (≈ 151 µM) | 50 µg/mL (≈ 151 µM) | > 50 µg/mL | 25 µg/mL (≈ 75.4 µM) | – | – |
| O=C1C(Sc2ccccc2)=C(N(c2ccccc2)c2ccccc2)C(=O)c2ccccc21 | > 50 µg/mL | 50 µg/mL (≈ 115 µM) | 50 µg/mL (≈ 115 µM) | – | – | – | – | – | – | – | – |
| OC(Cn1cncn1)(Cn1cncn1)c1ccc(F)cc1F [FLUCONAZOLE] | – | – | – | 1.56 µg/mL (≈ 5.09 µM) | 1 µg/mL (≈ 3.27 µM) | 0.5 µg/mL (≈ 1.63 µM) | 1 µg/mL (≈ 3.27 µM) | 2 µg/mL (≈ 6.53 µM) | 2 µg/mL (≈ 6.53 µM) | – | – |
| O=C1C(Cl)=C(Nc2ccc(O)cc2)C(=O)c2ccccc21 | > 50 µg/mL | 6.25 µg/mL (≈ 20.9 µM) | 6.25 µg/mL (≈ 20.9 µM) | 1.56 µg/mL (≈ 5.2 µM) | 1.56 µg/mL (≈ 5.2 µM) | 0.78 µg/mL (≈ 2.6 µM) | 6.25 µg/mL (≈ 20.9 µM) | 1.56 µg/mL (≈ 5.2 µM) | 3.12 µg/mL (≈ 10.4 µM) | – | – |
| NCC[C@H](O)C(=O)N[C@@H]1C[C@H](N)[C@@H](O[C@H]2O[C@H](CN)[C@@H](O)[C@H](O)[C@H]2O)[C@H](O)[C@H]1O[C@H]1O[C@H](CO)[C@@H](O)[C@H](N)[C@H]1O [AMIKACIN] | 1 µg/mL (≈ 1.71 µM) | 16 µg/mL (≈ 27.3 µM) | 1 µg/mL (≈ 1.71 µM) | – | – | – | – | – | – | – | – |
| NC[C@H]1O[C@H](O[C@H]2[C@H](O)[C@@H](O[C@H]3O[C@H](CO)[C@@H](O)[C@H](N)[C@H]3O)[C@H](N)C[C@@H]2N)[C@H](N)C[C@@H]1O [TOBRAMYCIN] | 0.5 µg/mL (≈ 1.07 µM) | 0.25 µg/mL (≈ 0.535 µM) | 1 µg/mL (≈ 2.14 µM) | – | – | – | – | – | – | – | – |
| O=C1C(Cl)=C(Nc2ccccc2)C(=O)c2ccccc21 | > 50 µg/mL | > 50 µg/mL | > 50 µg/mL | > 50 µg/mL | > 50 µg/mL | > 50 µg/mL | > 50 µg/mL | > 50 µg/mL | > 50 µg/mL | – | – |
| COc1cccc(SC2=C(Cl)C(=O)c3ccccc3C2=O)c1 | 12.5 µg/mL (≈ 37.8 µM) | 25 µg/mL (≈ 75.6 µM) | > 50 µg/mL | – | – | – | – | – | – | – | – |
| N#Cc1ccccc1NC1=C(Nc2ccccc2C#N)C(=O)c2ccccc2C1=O | – | – | – | > 50 µg/mL | > 50 µg/mL | 25 µg/mL (≈ 64 µM) | 50 µg/mL (≈ 128 µM) | > 50 µg/mL | > 50 µg/mL | – | – |
| Cn1c(N)c2ccccc2nc2c(=O)c3ccccc3c(=O)c1=2 | 25 µg/mL (≈ 82.4 µM) | > 50 µg/mL | 50 µg/mL (≈ 165 µM) | 25 µg/mL (≈ 82.4 µM) | > 50 µg/mL | 50 µg/mL (≈ 165 µM) | 50 µg/mL (≈ 165 µM) | 25 µg/mL (≈ 82.4 µM) | 25 µg/mL (≈ 82.4 µM) | – | – |
| COc1cccc(SC2=C(N)C(=O)c3ccccc3C2=O)c1 | > 50 µg/mL | 25 µg/mL (≈ 80.3 µM) | 12.5 µg/mL (≈ 40.1 µM) | 12.5 µg/mL (≈ 40.1 µM) | 12.5 µg/mL (≈ 40.1 µM) | 12.5 µg/mL (≈ 40.1 µM) | 25 µg/mL (≈ 80.3 µM) | 25 µg/mL (≈ 80.3 µM) | 6.25 µg/mL (≈ 20.1 µM) | – | – |
| O=C1C(Sc2cccc3ccccc23)=C(N(c2ccccc2)c2ccccc2)C(=O)c2ccccc21 | – | – | – | 50 µg/mL (≈ 103 µM) | 25 µg/mL (≈ 51.7 µM) | > 50 µg/mL | > 50 µg/mL | > 50 µg/mL | 50 µg/mL (≈ 103 µM) | – | – |
| N#Cc1ccccc1NC1=C(Br)C(=O)c2ccccc2C1=O | – | – | – | 6.25 µg/mL (≈ 17.7 µM) | 25 µg/mL (≈ 70.8 µM) | 12.5 µg/mL (≈ 35.4 µM) | 12.5 µg/mL (≈ 35.4 µM) | > 50 µg/mL | > 50 µg/mL | – | – |
| Clc1ccc(COC(Cn2ccnc2)c2ccc(Cl)cc2Cl)c(Cl)c1 (configuration not stated) [MICONAZOLE] | – | – | – | < 0.78 µg/mL | 25 µg/mL (≈ 60.1 µM) | 12.5 µg/mL (≈ 30 µM) | – | – | 12.5 µg/mL (≈ 30 µM) | – | – |
